Consider three compounds from ChEMBL document CHEMBL6074685, “Design, synthesis and biological evaluation of novel diaryl-substituted fused nitrogen heterocycles as tubulin polymerization inhibitors to overcome multidrug resistance in vitro and in vivo” (Eur J Med Chem, 2025).

For series [1], the system named is A549/TR. Kind of series: Antitumor activity against human A549/T cell xenografted in BALB/c mouse assessed as reduction in tumor growth at 15 mg/kg, ip administered every 2 days. To be noted: time 2.0 day. The format is functional, organism-based.
Series [2] concerns A549/TR. Kind of series: Antiproliferative activity against human A549/T cell assessed as cell growth inhibition in presence of verapamil incubated for 48 hrs by MTT assay. The format is functional, cell-based.
The test system of series [3] is A549. Kind of series: Inhibition of colony formation in human A549 cells at 1 uM incubated for 48 hrs by crystal violet staining based analysis. The format is functional, cell-based.
Series [4] relates to A549/TR. Kind of series: Inhibition of colony formation in human A549/T cell at 1 uM incubated for 48 hrs by crystal violet staining based analysis. The series is classed as functional.
The nature of series [5]: Toxicity in BALB/c mouse implanted with human A549/T cell assessed as change in body weight at 15 mg/kg, ip administered every 2 days. The format is organism-based. To be noted: in vivo, 48 h, time 2 day.
Series [6] deals with A549/TR. The experiment in a line: Antiproliferative activity against human A549/T cell assessed as cell growth inhibition incubated for 48 hrs by MTT assay. The format is functional, cell-based.
Series [7] relates to A549. Kind of series: Antiproliferative activity against human A549 cells assessed as cell growth inhibition incubated for 48 hrs by MTT assay. The settings on record: A549, 48 h.
Series [8] is described as follows: Resistance index, ratio of IC50 for human A549/T cells to IC50 for human A549 cells. The format is functional.
A further series deals with Tubulin (Homo sapiens) (UniProt P68371+Q9H4B7+P0DPH7+P68366+Q13509+Q71U36+P04350+Q3ZCM7+P07437+P68363+Q9BQE3+Q6PEY2+Q13885+Q9BVA1+Q9BUF5). Kind of series: Disruption of microtubule network in human A549/T cell assessed as disorganization of tubulin cytoskeleton at 1000 nM incubated for 24 hrs by immunofluorescence staining based confocal microscopy analysis.
The subject of series [9] is A549/TR. Kind of series: Antiproliferative activity against human A549/T cell assessed as cell growth inhibition at 80 nM incubated for 48 hrs by MTT assay. The format is functional, cell-based.
The nature of series [10]: Metabolic stability in human liver microsome assessed as half life measured upto 50 mins by LC-MS/MS analysis. The series is classed as ADME. The settings on record: liver microsomes.
Series [11] can be described thus: Inhibition of pig brain tubulin polymerization measured upto 20 mins by absorbance based assay. More on the design: species or system Sus scrofa.
The nature of series [12]: Metabolic stability in human liver microsome assessed as intrinsic clearance measured upto 50 mins by LC-MS/MS analysis. The series is classed as ADME. The settings on record: liver microsomes, read-out: CLH.
Series [13] can be described thus: Aqueous solubility of the compound […] at pH 7.4 by HPLC analysis. The format is physicochemical.

≈ marks a conversion by molar mass, not a printed value. Calls of active or inactive are those of the source. The calls are words filed in the database; no cut-off is given here. Bounds are passed on as bounds.

Consider `CC(=O)O[C@H]1C(=O)[C@@]2(C)[C@H]([C@H](OC(=O)c3ccccc3)[C@]3(O)C[C@H](OC(=O)[C@H](O)[C@@H](NC(=O)c4ccccc4)c4ccccc4)C(C)=C1C3(C)C)[C@]1(OC(C)=O)CO[C@@H]1C[C@@H]2O` [PACLITAXEL], for which the result with A549/TR [1] was inactive. Besides, the outcome in the series on A549/TR [2] and on Tubulin (Homo sapiens) was Active. In addition, the inhibition entry in the series on A549 [3] was “Active”. Further, the inhibition result in the series on A549/TR [4] was “inactive”. In addition, the Activity entry in series [5] is on record as “Non-toxic”. The IC50 was greater than 50000 nM in the series with A549/TR [6] and 2 nM in the series on A549 [7]. The “Ratio IC50” value in series [8] was greater than 25000.
Regarding `COc1ccc(CCN(C)CCCC(C#N)(c2ccc(OC)c(OC)c2)C(C)C)cc1OC` (stereo not drawn), the outcome with A549/TR [9] was Active. Moreover, the result in the series with A549/TR [6] was inactive.
`COc1ccc(/C=C\c2cc(OC)c(OC)c(OC)c2)cc1O` [COMBRETASTATIN A4]: the outcome with A549/TR [1] was Active. Besides, in series [10], the half-life was found to be 14 min. Also, the IC50 in [11] stood at 1400 nM; with A549/TR [6], 13 nM. Besides, in [5], the Activity entry is recorded as “Non-toxic”. Moreover, the CLint scaled in series [12] amounted to 90 mL/min/kg. The concentration in solution in series [13] (solubility) was 1 µg/mL (≈ 3.16 µM).
